For assay [1], the system named is simian virus 40-transformed and parental normal human fibroblasts. The settings on record: but not the parental normal; cited from earlier work.
Assay [2] concerns human Jurkat T cells overexpressing Bcl-2 and human prostate, breast, tongue and brain tumor cell lines. The conditions noted are these: cited from earlier work; for apoptosis induction / cell kill: low concentrations, same conditions for etoposide.
The test system of assay [3] is Bax degradation activity. In words: cell-free Bax degradation assay, inhibitor added to MCF-7 cell extract. Type of assay: biochemical, human. The conditions noted are these: 10-minute preincubation of MCF-7 cell extract with inhibitor (100 mM per FIG. 9C legend), 37° C., 4 h. On the procedure: (§1) FIGS. 9A-9F show Bax degradation depends on ubiquitination, proteasome and ATP. (FIG. 9A) Jurkat cells (0 h) were treated with either 50 μM LLnV or 10 μM lactacystin, followed by preparation of Bax immunoprecipitates (with clone 6A7), which were immunoblotted with an ubiquitin antibody. Positions of putative ubiquitinated Bax proteins (p47, p55) are indicated at left. The nature of the ˜30 kDa and ˜84 kDa remains unclear. (FIG. 9B) The [^35S]-labeled Bax (upper) or Bcl-2 (lower) protein (1 μl) were incubated at 37° C. for 2 h with either buffer Z only (lane 1) or […] protein extract of MCF-7 cells grown exponentially (lane 2) or pretreated for 8 h with […] LLnV (lane 3). (FIG. 9C) The [^35S]-labeled Bax protein (1 μl) was incubated with either buffer Z only (lane 1) or 100 μg MCF-7 cell lysate at 37° C. for 4 h, in the presence of an indicated inhibitor (100 mM; lanes 3-8) or an equal volume of DMSO (lane 2) in buffer Z. A weak band of ˜16 kDa (indicated by an arrow) is probably an intermediate product of proteasome-mediated Bax degradation. (FIG. 9D) The proteasome in MCF-7 whole cell lysate (W lys, lane 1) was precipitated by using either ultraspin (ULS) or a proteasome subunit a6 antibody (IP). Both supernatant (lanes 2, 4) and pellet (lanes 3, 5) fractions were examined by Western blot assay using antibody to the proteasome a6 subunit (MW 33 kDa). (FIG. 9E) Bax degradation assay was performed as in FIG. 9B, with addition of buffer Z (lane 1) or 100 μg protein from MCF-7 whole cell lysate (lane 2), ultraspun supernatant (lane 3) or plus the pellet (lane 4), immunodepleted supernatant (lane 5) or plus a purified 20S proteasome ([…]; lane 6), or the purified proteasome alone (2 μg; lane 7). (FIG. 9F) Bax degradation assay was performed as in FIG. 9B, in the absence (lane 3) or presence of 10 mM ATP (lane 2) or 10 mM ATP-y-S (lane 4).
In vitro Bax Degradation Assay: Human Bax-a cDNA subcloned into pcDNA3 was a gift from Dr. Hong-gang Wang. Human full length of bcl-2-a cDNA was cloned from Jurkat T cells and subcloned into pcDNA3.1(−) as described+. Both bax and bcl-2 plasmids were used for coupled in vitro transcription/translation (Promega; Madison, Wis.) in the presence of [^35S]methionine (Amersham Pharmacia Biotech; Piscataway, N.J.). Protein extracts were prepared from either MCF-7 cells or prostate tumor tissues in buffer Y (50 mM Tris-HCl, pH 7.4, 250 mM NaCl, 1% Triton X-100, 0.1% SDS, 1 mM EDTA), and used for Bax (or Bcl-2) degradation assay. Briefly, 1 microl of [^35S]-labeled Bax (or Bcl-2) protein was incubated at 37° C. for 2-4 hours with 100-200 microg protein extract in buffer Z (50 mM Tris-HCl, pH 7.4, 5 mM MgCl2, 3 mM DTT, 10 mM ATP, 10 mM phosphocreatine, 10 microg/ml creatine phosphokinase, 10 microg/ml aprotinin, 10 microg/ml leupeptin, 10% glycerol and 2 microg/ml ubiquitin). After incubation, the samples were subjected to gel electrophoresis and autoradiography. Under the cell-free assay conditions, the calpain-mediated Bax cleavage activity was blocked by omission of calcium and addition of the protease inhibitor leupeptin (Wood et al, 1998). To deplete the proteasome, MCF-7 cell lysates were either immunoprecipitated with the 20S proteasome subunit a6 antibody or ultracentrifugated at 100,000×g for 6 hours. The proteasome-enriched pellet fraction was resuspended in buffer Y.
To further study the proteasome activity that degrades Bax protein, a cell-free Bax degradation assay was developed by using an in vitro-translated, [^35S]-labeled Bax protein as substrate (FIG. 9B, upper, lane 1). The Bax degradation activity is present in protein extracts prepared from exponentially growing MCF-7 (FIG. 9), K562, VA-13, WI-38, Jurkat T or HL-60 cells. The labeled Bax was almost completely degraded by a MCF-7 cell extract after 2 to 4 hours incubation at 37° C. (FIG. 9B, upper, and FIG. 9C, lanes 2 vs. 1). […]

Assay [4] deals with Jurkat T cells. In words: Western blot and Bax IP/ubiquitin blot in Jurkat T cells. Type of assay: cell-based, human. The conditions noted are these: 50 microM. On the procedure:
FIGS. 8A-8D show proteasome inhibition accumulates Bax to mitochondria/cytoplasm and increases interaction between Bax and Bcl-2 proteins. Jurkat cells (0 h; FIG. 8A and FIG. 8B) or Jurkat cells overexpressing Bcl-2 (0 h; FIG. 8C and FIG. 8D) were treated by either 10 μM lactacystin (FIGS. 8A-8C), 50 μM LLnV (FIG. 8D), or 50 μM LLM (FIG. 8A and FIG. 8B) for the indicated hours. (FIG. 8A and FIG. 8B) Western blotting with antibodies to PARP and Bax were performed as described in FIG. 7. (FIG. 8C) Immunohistochemistry (see MATERIALS AND METHODS). Localization of Bax protein (green) and nuclei (red) are shown. (FIG. 8D) Bax immunoprecipitates, prepared by an agarose-conjugated N-20 Bax antibody, were immunoblotted first with the 6A7 Bax antibody (upper) and then reblotted with a Bcl-2 antibody (lower).
as §1, with “4). […]” for “4).”
In general terms: A western blot detects proteins with antibodies after separation by electrophoresis.

The test system of assay [5] is normal WI-38 cells. In words: PARP cleavage, cytochrome c release, Bax and p21 in normal fibroblasts. The conditions noted are these: LLnL at up to 200 microM, 14 hours. The format is cell-based, human. The source says:
Proteasome inhibitors activate Bax- and cytochrome c-dependent apoptosis pathway preferentially in transformed human fibroblasts. Normal human fibroblasts are more resistant to proteasome inhibitor-induced apoptosis than transformed and cancer cells (An et al., in press). This is probably due to inability of the normal cells to accumulate Bax protein in response to proteasome inhibition, and consequently failure to release cytochrome c. To test this hypothesis, both SV40-transformed and normal WI-38 cells were treated with 50 microM LLnV for up to 24 hours, followed by measurement of PARP cleavage, cytochrome c release and Bax accumulation. […] In contrast, only after 24 hours treatment, low levels of p85/PARP fragment and cytosolic cytochrome c were detected in normal WI-38 cells (FIGS. 1, A, B, lanes 8-14). […] The levels of Bax/p21 were increased at as early as 4 hours and remained high afterwards. […] The level of another band of ˜47 kDa increased at 4 hours, further increased between 6 and 12 hours, and then decreased (FIG. 1C). The p70 and p47 bands can contain ubiquitinated forms of Bax since similar polypeptides were detected by antibodies to both Bax and ubiquitin (Li et al., 1999). […] Therefore, although unable to activate the Bax- and cytochrome c-dependent apoptotic pathway in response to a low concentration of a proteasome inhibitor, normal cells are capable of undergoing Bax- and cytochrome c-independent apoptosis in response to a proteasome inhibitor at higher concentrations.
SV40-transformed (VA-13) and normal WI-38 cells were treated with 50 microM LLnV or DMSO (letter D) for up to 24 hours, followed by measurement of PARP cleavage (A), cytochrome c release (B) and Bax accumulation (C; also see FIG. 2). Panel D, exponentially grown VA-13 cells were pretreated with 50 microM LLnV or DMSO for 1 hour, washed with methionine-free medium, and then incubated for 30 minutes in methionine-free medium plus 50 microM LLnV (or DMSO). This was followed by replacing fresh methionine-free medium containing 150 microCi/ml of [^35S]-methionine, 10% dialyzed FBS and 50 microM LLnV (or DMSO). Cells were further incubated for 6 hours, followed by preparation of [^35S]-labeled protein lysates and Bax immunoprecipitates (6A7, PharMingen). The labeled Bax bands are indicated. […] Bax-alpha subcloned into pcDNA3 was used for coupled in vitro transcription/translation in the presence of [^35S]methionine. For Bax cleavage assay, the whole cell extracts were prepared. The [^35S]-labeled Bax (0.7 microl) was incubated with 50 microg protein in assay buffer (containing 50 microM LLM and no Ca^2+) for 4 hours at 37° C. Following incubation, the samples were subjected to SDS gel electrophoresis and autoradiography.

Where a SMILES comes first, the peptide text is derived from it. [ ]: non-standard residue; d: D form. The star is where a group is joined. Nle = CCCC[C@H](N)C(=O)O; Cbz = O=C(OCc1ccccc1)*

Take `CC(C)C[C@@H](C=O)NC(=O)[C@H](CCCN=C(N)N[N+](=O)[O-])NC(=O)C(CCCCCCCCN1C(=O)c2ccccc2C1=O)C1CCCC1` (some centres unmarked) [CEP1612]: the “p27 accumulation and apoptosis” value in assay [1] was “selectively accumulates p27 and induces apoptosis”. The “cyclin-dependent kinase inhibitors p21 and p27” value in assay [2] (associated with CEP1612-induced apoptosis) is “accumulation of the cyclin-dependent kinase inhibitors p21 and p27”. In addition, the “apoptosis induction / cell kill” value in assay [2] is given as “rapidly induces apoptosis”.
With `CC(C)C[C@@H](C=O)NC(=O)[C@H](CC(C)C)NC(=O)[C@H](CC(C)C)NC(=O)OCc1ccccc1` [LLL] (Cbz-Leu-Leu-Leu-aldehyde), the Bax degradation process/activity result in assay [3] is on record as “blocked”.
As to `CSCCC(C=O)NC(=O)C(CC(C)C)NC(=O)C(CC(C)C)NC(C)=O` (stereo not drawn) [LLM] (Ac-Leu-Leu-Met-aldehyde; configuration not given here), the Bax degradation process/activity result in assay [3] is on record as “not”. Moreover, the “Bax accumulation and PARP cleavage” value in assay [4] is “had no such effects”.
Take `CCCC[C@@H](C=O)NC(=O)[C@H](CC(C)C)NC(=O)[C@H](CC(C)C)NC(C)=O` [LLnL] (Ac-Leu-Leu-[Nle]-aldehyde): the Bax degradation process/activity entry in assay [3] is “blocked”. Further, in assay [5], the “apoptosis as judged by PARP cleavage” value was “underwent apoptosis”; the “cytochrome c release and Bax accumulation” value is recorded as “neither release cytochrome c nor accumulate Bax”; the “levels of the cdk inhibitor p21” value is listed as “significantly increased”.
As for `CCN1C(=O)C=CC1=O` [N-ethylmaleimide], the Bax degradation process/activity entry in assay [3] was “not inhibited”.
Still for that read-out and setting: then `CC(=O)N[C@@H](CC(=O)O)C(=O)N[C@@H](CCC(=O)O)C(=O)N[C@H](C(=O)N[C@@H](CC(=O)O)C(=O)CF)C(C)C` [acetyl-DEVD-fluoromethyl ketone], with “not inhibited”; and `CC(=O)N[C@@H](Cc1ccc(O)cc1)C(=O)N[C@H](C(=O)N[C@@H](C)C(=O)N[C@@H](CC(=O)O)C(=O)CCl)C(C)C` [acetyl-YVAD-chloromethyl ketone], with “not inhibited”; and `CC(C)[C@H](O)[C@@]12NC(=O)[C@H](C)[C@@H]1OC2=O` [b-lactone, clasto-lactacyctin b-lactone], with “blocked”.
Same read-out and setting: then `N=C(N)c1ccccc1` [benzamidine], with “not inhibited”.
As for `COc1cc([C@@H]2c3cc4c(cc3[C@@H](O[C@@H]3O[C@@H]5CO[C@@H](C)O[C@H]5[C@H](O)[C@H]3O)[C@H]3COC(=O)[C@H]23)OCO4)cc(OC)c1O` [etoposide], the “apoptosis induction / cell kill” value in assay [2] is given as “fails to kill these cells”.
With `CC(=O)N[C@@H](CC(C)C)C(=O)N[C@@H](CC(C)C)C(=O)N[C@H](C=O)CCCNC(=N)N` [leupeptin], in assay [3], the Bax degradation process/activity entry is listed as “not inhibited”.
In the case of `O=S(=O)(F)Cc1ccccc1` [phenylmethylsulfonyl fluoride], in assay [3], the Bax degradation process/activity result is recorded as “not inhibited”.
Regarding aprotinin, the Bax degradation process/activity entry in assay [3] is reported as “not inhibited”.
Still for that read-out and setting: then tosyl-L-lysine chloromethyl ketone, with “not inhibited”.
